Measured values as given in US5834430A, “Potentiation of antibiotics” (BiosYnth S.r.l., priority 1995, dated 1998).
Read-outs that look alike come from different tables or passages of the source.

Tests used:
Assay in all cases: Checkerboard microdilution MIC of antibiotic with peptide
E. coli IH3080 = type: cell-based; settings: Escherichia coli, no peptide (None, 0)
Procedure: (§1) The general assay medium was L broth (pH7.2) which contained 10 g of tryptone (Difco Laboratories, Detroit, Mich.), 5 g of yeast extract (Oxoid Ltd., Hampshire, UK) and 5 g of sodium chloride per liter. After an incubation time of 18 hours at 37° C., the growth of each microtiter well is measured with a Titerteck Multiscan spectrophotometer at 405 nm. Before reading, the spectrophotometer was blanked with corresponding uninoculated drug-containing media. The minimum inhibitory concentration (MIC) of an antibiotic was defined as the lowest concentration of the antibiotic expressed in mg/l which reduced the growth of the target bacteria by ≥90% (MIC90).

Kl. pneumoniae 12854 = type: cell-based
Procedure: as §1

E. cloa 12645 = type: cell-based; settings: Enterobacter cloacae, no peptide (None, 0)
Procedure: as §1

Ps. aeroginosa PAO1 = type: cell-based; settings: Pseudomonas aeruginosa, no peptide (None, 0)
Procedure: as §1

S. typhi SH5014 = type: cell-based, Salmonella typhimurium
Procedure: as §1

[1] = Experiment IV, read-out: MIC Erythrom.
[2] = Experiment II, read-out: MIC Fusidic a.
[3] = Experiment III, read-out: MIC Novobiocin
[4] = Experiment I, read-out: MIC Rifampin

Question: For CC[C@H]1OC(=O)[C@H](C)[C@@H](O[C@H]2C[C@@](C)(OC)[C@@H](O)[C@H](C)O2)[C@H](C)[C@@H](O[C@@H]2O[C@H](C)C[C@H](N(C)C)[C@H]2O)[C@](C)(O)C[C@@H](C)C(=O)[C@H](C)[C@@H](O)[C@]1(C)O [Erythrom., erythromycin], which MIC (E. coli IH3080; [1]) is on record?
Answer: 30 µg/mL

Question: What about the MIC (Kl. pneumoniae 12854; Klebsiella pneumoniae, 12854, read-out: MIC Erythrom.) of the same compound?
Answer: > 100 µg/mL

Question: And the MIC (E. cloa 12645; [1])?
Answer: > 100 µg/mL

Question: What about the MIC (Ps. aeroginosa PAO1; [1]) of the same compound?
Answer: 100 µg/mL

Question: And the MIC (S. typhi SH5014; read-out: MIC Erythromycin.)?
Answer: 100 µg/mL

Question: CC(=O)O[C@H]1C[C@@]2(C)[C@@H](C[C@@H](O)[C@H]3[C@@]4(C)CC[C@@H](O)[C@@H](C)[C@@H]4CC[C@@]32C)/C1=C(\CCC=C(C)C)C(=O)O [Fusidic a., fusidic acid] was tested. Which MIC (E. coli IH3080; [2]) did it give?
Answer: 300 µg/mL

Question: What about the MIC (Kl. pneumoniae 12854; Klebsiella pneumoniae, 12854, read-out: MIC Fusidic a.) of the same compound?
Answer: > 300 µg/mL

Question: What about the MIC (E. cloa 12645; [2]) of the same compound?
Answer: > 300 µg/mL

Question: What about the MIC (Ps. aeroginosa PAO1; [2]) of the same compound?
Answer: > 300 µg/mL

Question: What about the MIC (S. typhi SH5014; read-out: MIC Fusidic a.) of the same compound?
Answer: > 300 µg/mL

Question: CO[C@@H]1[C@@H](OC(N)=O)[C@@H](O)[C@H](Oc2ccc3c(O)c(NC(=O)c4ccc(O)c(CC=C(C)C)c4)c(=O)oc3c2C)OC1(C)C [Novobiocin, novobiocin] was tested. Which MIC (E. coli IH3080; [3]) did it give?
Answer: 30 µg/mL

Question: And the MIC (Kl. pneumoniae 12854; Klebsiella pneumoniae, 12854, read-out: MIC Novobiocin)?
Answer: 30 µg/mL

Question: What about the MIC (E. cloa 12645; [3]) of the same compound?
Answer: > 30 µg/mL

Question: And the MIC (Ps. aeroginosa PAO1; [3])?
Answer: > 30 µg/mL

Question: And the MIC (S. typhi SH5014; read-out: MIC Novobiocin)?
Answer: 30 µg/mL

Question: What does the source list for CO[C@H]1/C=C/O[C@@]2(C)Oc3c(C)c(O)c4c(O)c(c(/C=N/N5CCN(C)CC5)c(O)c4c3C2=O)NC(=O)/C(C)=C\C=C\[C@H](C)[C@H](O)[C@@H](C)[C@@H](O)[C@@H](C)[C@H](OC(C)=O)[C@@H]1C [Rifampin, rifampin]?
Answer: MIC (E. coli IH3080; [4]): 10 µg/mL; MIC (Kl. pneumoniae 12854; Klebsiella pneumoniae, 12854, read-out: MIC Rifampin): 10 µg/mL; MIC (E. cloa 12645; [4]): 10 µg/mL; MIC (Ps. aeroginosa PAO1; [4]): > 10 µg/mL; MIC (S. typhi SH5014; read-out: MIC Rifampin): 10 µg/mL
